This is an account of results in patent publication US11254690B2, “PTEFb inhibiting macrocyclic compounds” (BAYER AKTIENGESELLSCHAFT, priority 2017, dated 2022).

Assay [1] has as its target T1, human PTEFb (CDK9/Cyclin T1) (Homo sapiens, UniProt P50750).
T1 construct: purchased ProQinase, Freiburg, Germany
The experiment in a line: Surface Plasmon Resonance PTEFb. It is filed as binding. Conditions: SPR, 37° C. The source says:
8. Surface Plasmon Resonance PTEFb
The term “surface plasmon resonance”, as used herein, refers to an optical phenomenon that allows for the analysis of the reversible associations of biological molecules in real time within a biosensor matrix, for example using the Biacore® system (GE Healthcare Biosciences, Uppsala, Sweden). Biacore® uses the optical properties of surface plasmon resonance (SPR) to detect alterations in the refractive index of a buffer, which changes as molecules in solution interact with the target immobilized on the surface. In brief, proteins are covalently bound to the dextran matrix at a known concentration and a ligand for the protein is injected through the dextran matrix. Near infrared light, directed onto the opposite side of the sensor chip surface is reflected and also induces an evanescent wave in the gold film, which in turn, causes an intensity dip in the reflected light at a particular angle known as the resonance angle. If the refractive index of the sensor chip surface is altered (e.g. by compound binding to the bound protein) a shift occurs in the resonance angle. This angle shift can be measured.
The term “KD”, as used herein, is intended to refer to the equilibrium dissociation constant of a particular compound/target protein complex.
The term “koff”, as used herein, is intended to refer to the off-rate, i.e. the dissociation rate constant of a particular compound/target protein complex.
The term “target residence time”, as used herein, is intended to refer to the inverse of the rate of dissociation rate constant (1/koff) of a particular compound/target protein complex.
The ability of the compounds according to the invention to bind human PTEFb may be determined using surface plasmon resonance (SPR). KD values and koff values may be measured using a Biacore® T200 instrument (GE Healthcare, Uppsala, Sweden).
For SPR measurements, recombinant human PTEFb (CDK9/Cyclin T1 recombinant human active protein kinase purchased from ProQinase, Freiburg, Germany) is immobilized using standard amine coupling (Johnsson B et al, Anal Biochem. 1991 Nov. 1; 198(2):268-77). Briefly, carboxymethylated dextran biosensor chips (CM7, GE Healthcare) are activated with N-ethyl-N′-(3-dimethylaminopropyl)-carbodiimide hydrochloride (EDC) and N-hydroxysuccinimide (NHS) according to the supplier's instructions. Human PTEFb is diluted in 1×HBS-EP+ (GE Healthcare) and injected on the activated chip surface. Subsequently, a 1:1 solution of 1 M ethanolamine-HCl (GE Healthcare) and 1×HBS-EP is injected to block unreacted groups, resulting in approximately 4000 response units (RU) of immobilized protein. A reference surface is generated by treatment with NHS-EDC and ethanolamine-HCl. Compounds are dissolved in 100% dimethylsulfoxide (DMSO, Sigma-Aldrich, Germany) to a concentration of 10 mM and subsequently diluted in running buffer (1×HBS-EP+pH 7.4 [generated from HBS-EP+ Buffer 10× (GE Healthcare): 0.1 M HEPES, 1.5 M NaCl, 30 mM EDTA and 0.5% v/v Surfactant P20], 1% v/v DMSO). For kinetic measurements, serial dilutions of compound (0.78 nM up to 25 nM) are injected over immobilized protein. Binding kinetics is measured at 37° C. with a flow rate of 100 μl/min in running buffer. Compound concentrations are injected for 70 s followed by a dissociation time of 1100 s. The resulting sensorgrams are double-referenced against the reference surface as well as against blank injections.
The double-referenced sensorgrams are fit to a simple reversible Langmuir 1:1 reaction mechanism as implemented in the Biacore® T200 evaluation software 2.0 (GE Healthcare). In cases were full compound dissociation has not occurred at the end of the dissociation phase, the Rmax parameter (response at saturation) is fit as local variable. In all other cases, Rmax is fit as global variable.

Assay [2] relates to HeLa-MaTu-ADR cells. Kind of assay: Proliferation assay, HeLa-MaTu-ADR. Conditions: Homo sapiens, 96 h; 4 days, crystal violet; read-out: Inhibition of HeLa-MaTu-ADR cell proliferation IC50. It is filed as cell-based. As for the experimental part: Cultivated tumour cells (HeLa, human cervical tumour cells, ATCC CCL-2; NCI-H460, human non-small cell lung carcinoma cells, ATCC HTB-177; DU 145, hormone-independent human prostate carcinoma cells, ATCC HTB-81; HeLa-MaTu-ADR, multidrug-resistant human cervical carcinoma cells, EPO-GmbH Berlin; Caco-2, human colorectal carcinoma cells, ATCC HTB-37; B16F10, mouse melanoma cells, ATCC CRL-6475) were plated at a density of 5,000 cells/well (DU145, HeLa-MaTu-ADR), 3,000 cells/well (NCI-H460, HeLa), 1,500 cells/well (Caco-2), or 1,000 cells/well (B16F10) in a 96-well multititer plate in 200 μL of their respective growth medium supplemented 10% fetal calf serum. After 24 hours, the cells of one plate (zero-point plate) were stained with crystal violet (see below), while the medium of the other plates was supplemented with the test substances in various concentrations (0 μM, as well as in the range of 0.0001-10 μM; the final concentration of the solvent dimethyl sulfoxide was adjusted to 0.1%) using a Hewlett-Packard HP D300 Digital Dispenser. The cells were incubated for 4 days in the presence of test substances. Cell proliferation was determined by staining the cells with crystal violet: the cells were fixed by adding 20 μl/measuring point of an 11% glutaric aldehyde solution for 15 minutes at room temperature. After three washing cycles of the fixed cells with water, the plates were dried at room temperature. The cells were stained by adding 100 μl/measuring point of a 0.1% crystal violet solution (pH 3.0). After three washing cycles of the stained cells with water, the plates were dried at room temperature. The dye was dissolved by adding 100 μl/measuring point of a 10% acetic acid solution. The extinction was determined by photometry at a wavelength of 595 nm. The change of cell number, in percent, was calculated by normalization of the measured values to the extinction values of the zero-point plate (=0%) and the extinction of the untreated ([…]) cells (=100%). The IC50 values (inhibitory concentration at 50% of maximal effect) were determined by means of a 4 parameter fit. A2780 human ovarian carcinoma cells (ECACC #93112519) and non-adherent MOLM-13 human acute myeloid leukemia cells (DSMZ ACC 554) were seeded at a density of 3,000 cell/well (A2780) or 5,000 cells/well (MOLM-13) in a 96-well multititer plate in 150 μL of growth medium supplemented 10% fetal calf serum. After 24 hours, cell viability of one plate (zero-point plate) was determined with the Cell Titre-Glo Luminescent Cell Viability Assay (Promega), while the medium of the other plates was supplemented with the test substances in various concentrations (0 μM, as well as in the range of 0.0001-10 μM; the final concentration of the solvent dimethyl sulfoxide was adjusted to 0.1%) using a Hewlett-Packard HP D300 Digital Dispenser. Cell viability was assessed after 72-hour exposure with the Cell Titre-Glo Luminescent Cell Viability Assay (Promega). IC50 values (inhibitory concentration at 50% of maximal effect) were determined by means of a 4 parameter fit on measurement data which were normalized to vehicle (DMSO) treated cells (=100%) and measurement readings taken immediately before compound exposure (=0%).

T1 sequence (P50750 whole entry): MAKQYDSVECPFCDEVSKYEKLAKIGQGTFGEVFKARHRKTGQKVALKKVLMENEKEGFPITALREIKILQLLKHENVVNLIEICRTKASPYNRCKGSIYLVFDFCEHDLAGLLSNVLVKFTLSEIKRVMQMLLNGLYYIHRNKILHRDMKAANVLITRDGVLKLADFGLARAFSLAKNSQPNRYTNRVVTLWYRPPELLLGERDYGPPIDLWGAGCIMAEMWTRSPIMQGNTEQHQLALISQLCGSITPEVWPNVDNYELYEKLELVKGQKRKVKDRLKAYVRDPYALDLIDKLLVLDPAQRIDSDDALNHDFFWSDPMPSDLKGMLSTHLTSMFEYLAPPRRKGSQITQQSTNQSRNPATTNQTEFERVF
T1 sequence (O60563 whole entry partner): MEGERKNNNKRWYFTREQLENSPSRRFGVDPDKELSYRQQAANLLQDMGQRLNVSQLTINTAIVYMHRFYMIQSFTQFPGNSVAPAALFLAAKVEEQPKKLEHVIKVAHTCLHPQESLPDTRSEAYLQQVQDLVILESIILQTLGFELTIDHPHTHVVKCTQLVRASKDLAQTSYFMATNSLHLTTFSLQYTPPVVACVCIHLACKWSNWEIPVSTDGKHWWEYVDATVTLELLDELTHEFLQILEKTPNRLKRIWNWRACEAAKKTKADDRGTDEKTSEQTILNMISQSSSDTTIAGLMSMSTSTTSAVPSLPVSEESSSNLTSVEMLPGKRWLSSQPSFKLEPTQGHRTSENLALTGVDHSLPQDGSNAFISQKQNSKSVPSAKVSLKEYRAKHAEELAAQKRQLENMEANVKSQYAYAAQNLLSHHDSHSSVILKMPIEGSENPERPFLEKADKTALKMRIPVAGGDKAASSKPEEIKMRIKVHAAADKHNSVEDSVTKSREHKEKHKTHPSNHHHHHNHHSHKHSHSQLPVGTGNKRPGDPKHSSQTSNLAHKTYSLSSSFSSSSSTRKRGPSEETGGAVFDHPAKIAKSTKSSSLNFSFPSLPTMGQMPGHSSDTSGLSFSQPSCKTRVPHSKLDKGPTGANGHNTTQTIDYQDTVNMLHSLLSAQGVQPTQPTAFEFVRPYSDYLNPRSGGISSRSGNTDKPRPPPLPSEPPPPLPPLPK

On to `CS(=N)(=O)Cc1cc2cc(c1)OCCCCOc1cc(ccc1F)-c1nc(ncc1F)N2` (racemic) [Example 4, (rac)-3,20-difluoro-10-[(S-methylsulfonimidoyl)methyl]-13,18-dioxa-5,7,25-triazatetracyclo[17.3.1.1^2,6.1^8,12]pentacosa-1(23),2(25),3,5,8(24),9,11,19,21-nonaene], for which the residence time (usually how long the partners stay bound on average) in assay [1] (1/koff, * = arithmetic means, read-out: Target residence time) is 25 min. Also, in assay [1] (* = arithmetic means of more than one value, read-out: Equilibrium dissociation constant KD), the Kd (commonly the equilibrium constant for the complex coming apart) stood at 1.2 nM. Further, the koff – broadly, the first-order rate constant of dissociation – in assay [1] (* = arithmetic means, < = below what is resolvable, read-out: Dissociation rate constant koff) amounted to 0.00067 s⁻¹. Besides, the IC50 in assay [2] amounted to 140 nM.
